{"source": "patent EP4745196A1", "about": "“RESIN COMPOSITION” (LG Chem, Ltd., priority 2023, dated 2025)", "key": {"[1]": {"test": "Measurement of pyrolysis temperature by differential scanning calorimeter", "format": "physicochemical", "details": "endothermic substance; DSC, heating rate 10°C/min, temperature at maximum heat flow", "experimental": "The endothermic substance may have a pyrolysis temperature of 50°C or more. The pyrolysis temperature of the endothermic substance may be 300°C or less. The pyrolysis temperature may also be referred to as a temperature at which the endothermic substance undergoes an endothermic reaction (endothermic reaction temperature). The pyrolysis may mean that a material is chemically decomposed into a simpler material when heat has been applied thereto. The pyrolysis temperature may mean a temperature at which the pyrolysis occurs. The pyrolysis temperature of the endothermic substance may be 300°C or less, 280°C or less, 260°C or less, 240°C or less, 220°C or less, 200°C or less, 180°C or less, 160°C or less, 140°C or less, 120°C or less, or 100°C or less. The pyrolysis temperature of the endothermic substance may be specifically 50°C or more, 60°C or more, 70°C or more, 80°C or more, 90°C or more, 100°C or more, 120°C or more, 140°C or more, 160°C or more, or 180°C or more. When the endothermic substance is heated to the pyrolysis temperature, it may be decomposed into components constituting the endothermic substance through endotherm. When the pyrolysis temperature of the endothermic substance is within the range, there is no or little endothermic reaction at a normal operating temperature of the battery, and if the thermal runaway of the battery occurs, a cooling effect may be provided to the ignited battery cell through the endothermic reaction (e.g., pyrolysis) of the endothermic substance, and it may be advantageous in terms of delaying thermal transfer to adjacent battery cells. The pyrolysis temperature may be a value measured while increasing the temperature at a rate of 10°C/min using a differential scanning calorimeter (DSC Q2000, TA Corporation). From the differential scanning calorimeter, a graph may be obtained in which the x-axis is temperatures (°C) and the y-axis is heat flows (W/g), and in the graph, the temperature at the point where a heat flow (W/g) value, for example, an absolute value of a heat flow (W/g) is maximum may be set as the pyrolysis temperature.\nFor endothermic substances used in Examples and Comparative Examples, pyrolysis temperatures were measured while increasing the temperature at a rate of 10°C/min using a differential scanning calorimeter (DSC Q2000, TA Corporation), and the results were described in Table 1. Specifically, 0.2 to 0.5 mg of a sample was placed in a crucible of the differential scanning calorimeter, and then a lid with a single hole penetrated with a punching needle was covered thereon. In a state where the crucible was placed in the center of a press, and a plunger was moved downward by turning a lever until no pressure was further applied downward, the crucible and lid were placed in the differential scanning calorimeter equipment, and a thermal analysis was performed. From the differential scanning calorimeter, a graph with temperature (°C) on the x-axis and heat flow (W/g) on the y-axis could be obtained, and the temperature at the point where the heat flow (W/g) value is maximum in the graph was defined as the pyrolysis temperature."}, "[2]": {"details": "endothermic substance; cited from earlier work"}, "[3]": {"test": "Measurement of solubility in water", "format": "physicochemical", "details": "endothermic substance; 20°C, added by 1g to 100 ml of water until precipitate", "experimental": "The endothermic substance may be a water-soluble substance.\nSpecifically, while the samples were each added by 1g to 100 ml of water at 20°C, the weight of the sample before a precipitate occurred was measured. The presence of the precipitate was visually observed; if no precipitate has occurred, it is observed transparently."}}}
{"smiles": "O.O.O.O.O.O.O.O.O.O.O.O.O.O.O.O.O.O.O=S(=O)([O-])[O-].O=S(=O)([O-])[O-].O=S(=O)([O-])[O-].[Al+3].[Al+3]", "note": "[Al2(SO4)3·18H2O]", "values": [{"measurement": "Pyrolysis temperature", "setting": "[1]", "value": 102, "unit": "°C"}, {"measurement": "Thermal conductivity", "setting": "[2]", "value": "0.24~0.31 W/mK"}]}
{"smiles": "[O]=[Al][O][Al]=[O]", "note": "[Al2O3]", "values": [{"measurement": "Pyrolysis temperature", "setting": "[1]", "value": 2000, "unit": "°C"}, {"measurement": "Solubility in water", "setting": "[3]", "value": 0, "unit": "g/100ml"}, {"measurement": "Thermal conductivity", "setting": "[2]", "value": 18, "unit": "W/mK"}]}
{"smiles": "[OH][Al]([OH])[OH]", "note": "[Al(OH)3]", "values": [{"measurement": "Pyrolysis temperature", "setting": "[1]", "value": 297, "unit": "°C"}, {"measurement": "Thermal conductivity", "setting": "[2]", "value": 26, "unit": "W/mK"}]}
{"smiles": "OB(O)O", "note": "[Example H3BO3, H3BO3]", "values": [{"measurement": "Pyrolysis temperature", "setting": "[1]", "value": 136, "unit": "°C"}, {"measurement": "Thermal conductivity", "setting": "[2]", "value": "1 or less W/mK"}]}
{"smiles": "O.O.O.O.O.O.O.O.O.O.O.O.O=S(=O)([O-])[O-].O=S(=O)([O-])[O-].[Al+3].[K+]", "note": "[KAl(SO4)2·12H2O]", "values": [{"measurement": "Pyrolysis temperature", "setting": "[1]", "value": 90, "unit": "°C"}, {"measurement": "Thermal conductivity", "setting": "[2]", "value": 0.55, "unit": "W/mK"}]}
{"smiles": "[Cl-].[K+]", "note": "[KCl]", "values": [{"measurement": "Pyrolysis temperature", "setting": "[1]", "value": 770, "unit": "°C"}, {"measurement": "Solubility in water", "setting": "[3]", "value": "≥ 30", "unit": "g/100ml"}, {"measurement": "Thermal conductivity", "setting": "[2]", "value": 6.53, "unit": "W/mK"}]}
{"smiles": "[Mg+2].[OH-].[OH-]", "note": "[Mg(OH)2]", "values": [{"measurement": "Pyrolysis temperature", "setting": "[1]", "value": 330, "unit": "°C"}, {"measurement": "Thermal conductivity", "setting": "[2]", "value": "42~60 W/mK"}]}
{"smiles": "[Cl-].[Cl-].[Mg+2]", "note": "[MgCl2]", "values": [{"measurement": "Pyrolysis temperature", "setting": "[1]", "value": 714, "unit": "°C"}, {"measurement": "Thermal conductivity", "setting": "[2]", "value": 0.5, "unit": "W/mK"}]}
{"smiles": "O.O.O.O.O.O.[Cl-].[Cl-].[Mg+2]", "note": "[MgCl2·6H2O]", "values": [{"measurement": "Pyrolysis temperature", "setting": "[1]", "value": 107, "unit": "°C"}, {"measurement": "Thermal conductivity", "setting": "[2]", "value": "0.15~0.96 W/mK"}]}
{"smiles": "[O]=[Mg]", "note": "[MgO]", "values": [{"measurement": "Pyrolysis temperature", "setting": "[1]", "value": 2800, "unit": "°C"}, {"measurement": "Solubility in water", "setting": "[3]", "value": 0, "unit": "g/100ml"}, {"measurement": "Thermal conductivity", "setting": "[2]", "value": 30, "unit": "W/mK"}]}
{"smiles": "[Cl-].[Na+]", "note": "[NaCl]", "values": [{"measurement": "Pyrolysis temperature", "setting": "[1]", "value": 801, "unit": "°C"}, {"measurement": "Thermal conductivity", "setting": "[2]", "value": "3.13~3.87 W/mK"}]}
